Assay results as given in ChEMBL document CHEMBL3045826, “Synthesis of new derivatives of 2,2-dimethyl-2,3-dihydro-7-benzo[b]furanol with potential antimicrobial activity” (Med Chem Res, 2009).
Values after ≈ are worked out from the molar mass of the structure shown. Active and inactive are the calls of the source. No cut-off for these calls is given here.

Key:
Bacillus subtilis [1] = assay: Antibacterial activity against Bacillus subtilis ATCC 6633 at 400 ug after 18 hr by disk diffusion method; type: functional
Pseudomonas aeruginosa [2] = assay: Antibacterial activity against Pseudomonas aeruginosa ATCC 15442 at 400 ug after 18 hr by disk diffusion method; type: functional
Escherichia coli [3] = assay: Antibacterial activity against Escherichia coli ATCC 25922 at 400 ug after 18 hr by disk diffusion method; type: functional
Escherichia coli [4] = assay: Antibacterial activity against Escherichia coli ATCC 10538 at 400 ug after 18 hr by disk diffusion method; type: functional
Staphylococcus aureus [5] = assay: Antibacterial activity against Staphylococcus aureus ATCC 25923 at 400 ug after 18 hr by disk diffusion method; type: functional
Proteus vulgaris [6] = assay: Antibacterial activity against Proteus vulgaris NCTC 4635 at 400 ug after 18 hr by disk diffusion method; type: functional
Candida albicans [7] = assay: Antifungal activity against Candida albicans ATCC 90028 at 400 ug after 24 to 48 hr by disk diffusion method; type: functional
Candida parapsilosis [8] = assay: Antifungal activity against Candida parapsilosis ATCC 22019 at 400 ug after 24 to 48 hr by disk diffusion method; type: functional
Escherichia coli [9] = assay: Antibacterial activity against Escherichia coli NCTC 8196 at 400 ug after 18 hr by disk diffusion method; type: functional
Pseudomonas aeruginosa [10] = assay: Antibacterial activity against Pseudomonas aeruginosa NCTC 6749 at 400 ug after 18 hr by disk diffusion method; type: functional, organism-based
Staphylococcus aureus [11] = assay: Antibacterial activity against Staphylococcus aureus ATCC 6538P at 400 ug after 18 hr by disk diffusion method; type: functional
[12] = test system: Bordetella bronchiseptica; assay: Antibacterial activity against Bordetella bronchiseptica ATCC 461 at 400 ug after 18 hr by disk diffusion method; type: functional
Enterococcus hirae [13] = assay: Antibacterial activity against Enterococcus hirae ATCC 10541 at 400 ug after 18 hr by disk diffusion method; type: functional
Candida albicans [14] = assay: Antifungal activity against Candida albicans ATCC 10231 at 400 ug after 24 to 48 hr by disk diffusion method; type: functional
Staphylococcus aureus [15] = assay: Antibacterial activity against Staphylococcus aureus NCTC 4163 at 400 ug after 18 hr by disk diffusion method; type: functional
Staphylococcus aureus [16] = assay: Antibacterial activity against Staphylococcus aureus ATCC 29213 at 400 ug after 18 hr by disk diffusion method; type: functional
Escherichia coli [17] = assay: Antibacterial activity against Escherichia coli NCTC 8196 after 18 hr; type: functional, organism-based
Staphylococcus aureus [18] = assay: Antibacterial activity against Staphylococcus aureus ATCC 25923 after 18 hr; type: functional; details: ATCC 25923, 18 h
Escherichia coli [19] = assay: Antibacterial activity against Escherichia coli ATCC 25922 after 18 hr; type: functional, organism-based
Candida parapsilosis [20] = assay: Antifungal activity against Candida parapsilosis ATCC 22019 after 18 hr; type: functional; details: Lodderomyces parapsilosis, ATCC 22019, 18 h
Escherichia coli [21] = assay: Antibacterial activity against Escherichia coli ATCC 10538 after 18 hr; type: functional, organism-based
Proteus vulgaris [22] = assay: Antibacterial activity against Proteus vulgaris NCTC 4635 after 18 hr; type: functional; details: NCTC 4635, 18 h
Staphylococcus aureus [23] = assay: Antibacterial activity against Staphylococcus aureus NCTC 4163 after 18 hr; type: functional; details: NCTC 4163, 18 h
Candida albicans [24] = assay: Antifungal activity against Candida albicans ATCC 10231 after 18 hr; type: functional; details: ATCC 10231, 18 h
Enterococcus hirae [25] = assay: Antibacterial activity against Enterococcus hirae ATCC 10541 after 18 hr; type: functional; details: ATCC 10541, 18 h
Staphylococcus aureus [26] = assay: Antibacterial activity against Staphylococcus aureus ATCC 29213 after 18 hr; type: functional; details: ATCC 29213, 18 h
Pseudomonas aeruginosa [27] = assay: Antibacterial activity against Pseudomonas aeruginosa NCTC 6749 after 18 hr; type: functional, organism-based
Staphylococcus aureus [28] = assay: Antibacterial activity against Staphylococcus aureus ATCC 6538P after 18 hr; type: functional
Bacillus subtilis [29] = assay: Antibacterial activity against Bacillus subtilis ATCC 6633 after 18 hr; type: functional; details: ATCC 6633, 18 h
[30] = test system: Bordetella bronchiseptica; assay: Antibacterial activity against Bordetella bronchiseptica ATCC 461 after 18 hr; type: functional, organism-based
Pseudomonas aeruginosa [31] = assay: Antibacterial activity against Pseudomonas aeruginosa ATCC 15442 after 18 hr; type: functional; details: ATCC 15442, 18 h
Candida albicans [32] = assay: Antifungal activity against Candida albicans ATCC 90028 after 18 hr; type: functional; details: ATCC 90028, 18 h
[33] = Cytotoxicity against Homo sapiens (human) MT4 cells after 96 hr by MTT assay; type: cell-based
[34] = test system: Human immunodeficiency virus 1; assay: Antiviral activity against Human immunodeficiency virus 1 infected human MT4 cells assessed as inhibition of virus-induced cytopathogenicity after 4 days by MTT assay; type: functional, organism-based; details: Human immunodeficiency virus 1, MT4, 96 h

In the case of `CC1(C)Cc2c(Br)c(Br)c(Br)c(OCC(O)CN3CCN(c4ccc(F)cc4)CC3)c2O1` (stereo not given), the “diameter of the inhibition zone (DIZ)” value (Bacillus subtilis [1]) is reported as “inactive”, the “diameter of the inhibition zone (DIZ)” value (Pseudomonas aeruginosa [2]) is reported as “inactive” and the “diameter of the inhibition zone (DIZ)” value (Escherichia coli [3]) is reported as “inactive”. The “diameter of the inhibition zone (DIZ)” value (Escherichia coli [4]) was “inactive”, the “diameter of the inhibition zone (DIZ)” value (Staphylococcus aureus [5]) was “inactive” and the “diameter of the inhibition zone (DIZ)” value (Proteus vulgaris [6]) was “inactive”. The “diameter of the inhibition zone (DIZ)” value (Candida albicans [7]) was “inactive”, the “diameter of the inhibition zone (DIZ)” value (Candida parapsilosis [8]) was “inactive” and the “diameter of the inhibition zone (DIZ)” value (Escherichia coli [9]) was “inactive”. The “diameter of the inhibition zone (DIZ)” value (Pseudomonas aeruginosa [10]) was “inactive”, the “diameter of the inhibition zone (DIZ)” value (Staphylococcus aureus [11]) was “inactive” and the “diameter of the inhibition zone (DIZ)” value [12] was “inactive”. For the same compound, the “diameter of the inhibition zone (DIZ)” value (Enterococcus hirae [13]) was “inactive”, the “diameter of the inhibition zone (DIZ)” value (Candida albicans [14]) was “inactive” and the “diameter of the inhibition zone (DIZ)” value (Staphylococcus aureus [15]) was “inactive”. For the same compound, the “diameter of the inhibition zone (DIZ)” value (Staphylococcus aureus [16]) was “inactive”.

For `CC1(C)Cc2c(Br)c(Br)c(Br)c(OCC(O)CN3CCCCC3)c2O1` (stereo not given), the zone of inhibition at 400 µg/disc (Bacillus subtilis [1]; ATCC 6633, 18 h, read-out: DIZ) was 19 mm, the MIC (Escherichia coli [17]) was “inactive” and the zone of inhibition at 400 µg/disc (Pseudomonas aeruginosa [2]; ATCC 15442, 18 h, read-out: DIZ) was 20 mm. For the same compound, the “diameter of the inhibition zone (DIZ)” value (Escherichia coli [3]) was “inactive”, the MIC (Staphylococcus aureus [18]) was 50 µg/mL (≈ 92.2 µM) and the MIC (Escherichia coli [19]) was “inactive”. For the same compound, the “diameter of the inhibition zone (DIZ)” value (Escherichia coli [4]) was “inactive”, the zone of inhibition at 400 µg/disc (Staphylococcus aureus [5]; ATCC 25923, 18 h, read-out: DIZ) was 16 mm and the zone of inhibition at 400 µg/disc (Proteus vulgaris [6]; NCTC 4635, 18 h, read-out: DIZ) was 20 mm. The zone of inhibition at 400 µg/disc (Candida albicans [7]; read-out: DIZ) was 18 mm, the MIC (Candida parapsilosis [20]) was 100 µg/mL (≈ 184 µM) and the zone of inhibition at 400 µg/disc (Candida parapsilosis [8]; Lodderomyces parapsilosis, read-out: DIZ) was 18 mm. For the same compound, the “diameter of the inhibition zone (DIZ)” value (Escherichia coli [9]) was “inactive”, the MIC (Escherichia coli [21]) was “inactive” and the MIC (Proteus vulgaris [22]) was 50 µg/mL (≈ 92.2 µM). The MIC (Staphylococcus aureus [23]) was 50 µg/mL (≈ 92.2 µM), the MIC (Candida albicans [24]) was 100 µg/mL (≈ 184 µM) and the MIC (Enterococcus hirae [25]) was 50 µg/mL (≈ 92.2 µM). The “diameter of the inhibition zone (DIZ)” value (Pseudomonas aeruginosa [10]) was “inactive”, the MIC (Staphylococcus aureus [26]) was 100 µg/mL (≈ 184 µM) and the zone of inhibition at 400 µg/disc (Staphylococcus aureus [11]; read-out: DIZ) was 17 mm. The “diameter of the inhibition zone (DIZ)” value [12] was “inactive”, the zone of inhibition at 400 µg/disc (Enterococcus hirae [13]; ATCC 10541, 18 h, read-out: DIZ) was 17 mm and the MIC (Pseudomonas aeruginosa [27]) was “inactive”. The MIC (Staphylococcus aureus [28]) was 50 µg/mL (≈ 92.2 µM), the MIC (Bacillus subtilis [29]) was 12.5 µg/mL (≈ 23.1 µM) and the MIC [30] was “inactive”. It also gave an MIC (Pseudomonas aeruginosa [31]) of 25 µg/mL (≈ 46.1 µM), an MIC (Candida albicans [32]) of 100 µg/mL (≈ 184 µM) and a zone of inhibition at 400 µg/disc (Candida albicans [14]; read-out: DIZ) of 18 mm. The zone of inhibition at 400 µg/disc (Staphylococcus aureus [15]; NCTC 4163, 18 h, read-out: DIZ) was 18 mm and the zone of inhibition at 400 µg/disc (Staphylococcus aureus [16]; ATCC 29213, 18 h, read-out: DIZ) was 16 mm.

For `CC1(C)Cc2c(Br)c(Br)c(Br)c(OCC(O)CN3CCN(c4ccccc4)CC3)c2O1` (stereo not given), the CC50 at 96 h [33] was 31 µM and the EC50 [34] was > 31 µM.
